Reference: PubChem BioAssay AID256 (DTP/NCI, 2004)
Values joined by “and” are separate entries in the source; they are usually repeats but may differ in a detail not shown here. Equal values may be shown once. Toxic doses and inconclusive results are not listed.

Test system: CD2F1 mice, L1210 leukemia ip, survival T/C
Experiment: NCI In Vivo Anticancer Drug Screen. Data for tumor model L1210 Leukemia (intraperitoneal) in CD2F1 (CDF1) mice
Details: endpoint: mean survival time, higher = longer survival
Summary of the method: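 Ratio T/C, where T is the treated-group value and C the vehicle-dosed control value, from mice implanted with a transplantable tumor.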

[1] = dose: 100.0 mg/kg/injection, schedule: Q04DX003 (ip), vehicle: saline with Tween-80
[2] = dose: 200.0 mg/kg/injection, schedule: Q04DX003 (ip), vehicle: saline with Tween-80
[3] = dose: 400.0 mg/kg/injection, schedule: Q04DX003 (ip), vehicle: saline with Tween-80

Nc1nc(N)c2nc(-c3ccccc3)c(N)nc2n1
T/C (dose: 12.5 mg/kg/injection, schedule: Q01DX009 (ip), vehicle: saline with Tween-80): 97 % of control
T/C (dose: 12.5 mg/kg/injection, schedule: Q04DX003 (ip), vehicle: saline with Tween-80): 102 % of control
T/C (dose: 25.0 mg/kg/injection, schedule: Q01DX009 (ip), vehicle: saline with Tween-80): 98 % of control
T/C (dose: 25.0 mg/kg/injection, schedule: Q04DX003 (ip), vehicle: saline with Tween-80): 95 % of control
T/C (dose: 50.0 mg/kg/injection, schedule: Q01DX009 (ip), vehicle: saline with Tween-80): 94 % of control
T/C (dose: 50.0 mg/kg/injection, schedule: Q04DX003 (ip), vehicle: saline with Tween-80): 98 % of control

COc1cccc(/C=N/[N+](C)(C)C)c1O
T/C (dose: 50.0 mg/kg/injection, schedule: Q01DX001 (ip), vehicle: saline): 107 % of control
T/C (dose: 100.0 mg/kg/injection, schedule: Q01DX001 (ip), vehicle: saline): 101 % of control
T/C (dose: 200.0 mg/kg/injection, schedule: Q01DX001 (ip), vehicle: saline): 97 % of control

ClCC[N+]12CC[N+](CCCl)(CC1)C2
T/C (dose: 6.25 mg/kg/injection, schedule: Q01DX009 (ip), vehicle: water): 95 % of control and 106 % of control and 109 % of control
T/C (dose: 12.5 mg/kg/injection, schedule: Q01DX009 (ip), vehicle: saline): 106 % of control [middle of 4 runs]
T/C (dose: 12.5 mg/kg/injection, schedule: Q01DX009 (ip), vehicle: water): 117 % of control and 104 % of control and 108 % of control
T/C (dose: 25.0 mg/kg/injection, schedule: Q01DX009 (ip), vehicle: saline): 110 % of control [middle of 4 runs]
T/C (dose: 25.0 mg/kg/injection, schedule: Q01DX009 (ip), vehicle: water): 115 % of control and 106 % of control and 109 % of control
T/C (dose: 50.0 mg/kg/injection, schedule: Q01DX009 (ip), vehicle: saline): 117 % of control and 102 % of control and 109 % of control
T/C (dose: 50.0 mg/kg/injection, schedule: Q01DX009 (ip), vehicle: water): 113 % of control and 119 % of control and 120 % of control
T/C (dose: 50.0 mg/kg/injection, schedule: Q04DX003 (ip), vehicle: saline): 102 % of control
T/C (dose: 66.0 mg/kg/injection, schedule: Q01DX009 (ip), vehicle: saline): 154 % of control
T/C (dose: 100.0 mg/kg/injection, schedule: Q01DX009 (ip), vehicle: saline): 116 % of control and 94 % of control
T/C (dose: 100.0 mg/kg/injection, schedule: Q01DX009 (ip), vehicle: water): 111 % of control
T/C (dose: 100.0 mg/kg/injection, schedule: Q04DX003 (ip), vehicle: saline): 102 % of control
T/C (dose: 150.0 mg/kg/injection, schedule: Q01DX009 (ip), vehicle: saline): 190 % of control
T/C (dose: 150.0 mg/kg/injection, schedule: Q04DX003 (ip), vehicle: saline): 118 % of control
T/C (dose: 200.0 mg/kg/injection, schedule: Q01DX009 (ip), vehicle: saline): 108 % of control [middle of 5 runs]
T/C (dose: 200.0 mg/kg/injection, schedule: Q04DX003 (ip), vehicle: saline): 123 % of control
T/C (dose: 300.0 mg/kg/injection, schedule: Q04DX003 (ip), vehicle: saline): 119 % of control
T/C (dose: 400.0 mg/kg/injection, schedule: Q01DX009 (ip), vehicle: saline): 121 % of control and 105 % of control
T/C (dose: 400.0 mg/kg/injection, schedule: Q04DX003 (ip), vehicle: saline): 178 % of control

O=C(Nc1cccc2c(NC(=O)c3ccccc3)cccc12)c1ccccc1
T/C (dose: 100.0 mg/kg/injection, schedule: Q01DX009 (ip), vehicle: saline with Tween-80): 94 % of control
T/C (dose: 200.0 mg/kg/injection, schedule: Q01DX009 (ip), vehicle: saline with Tween-80): 95 % of control
T/C (dose: 400.0 mg/kg/injection, schedule: Q01DX009 (ip), vehicle: saline with Tween-80): 91 % of control

N#Cc1ccc(C(Cl)(Cl)Cl)cc1
T/C [1]: 104 % of control
T/C [2]: 98 % of control
T/C [3]: 96 % of control

CC(=O)C(N=Nc1cccc2c1C(=O)c1cccc(Cl)c1C2=O)C(=O)Nc1ccccc1Cl (stereo not drawn)
T/C (dose: 75.0 mg/kg/injection, schedule: Q01DX001 (ip), vehicle: saline): 89 % of control
T/C (dose: 150.0 mg/kg/injection, schedule: Q01DX001 (ip), vehicle: saline): 95 % of control

O=[N+]([O-])C1=C(c2ccccc2)SC=C(c2ccccc2)S1
T/C (dose: 100.0 mg/kg/injection, schedule: Q01DX001 (ip), vehicle: saline with Tween-80): 87 % of control
T/C (dose: 200.0 mg/kg/injection, schedule: Q01DX001 (ip), vehicle: saline with Tween-80): 97 % of control
T/C (dose: 400.0 mg/kg/injection, schedule: Q01DX001 (ip), vehicle: saline with Tween-80): 105 % of control

CCOc1ccccc1NC(=O)c1ccc(Cl)cc1
T/C [1]: 97 % of control
T/C [2]: 100 % of control
T/C [3]: 103 % of control

CC(=O)Nc1c(Br)cc2c(c1Br)Cc1cc(N(CCO)CCO)ccc1-2
T/C (dose: 50.0 mg/kg/injection, schedule: Q01DX001 (ip), vehicle: carboxymethylcellulose (CMC)): 102 % of control
T/C (dose: 100.0 mg/kg/injection, schedule: Q01DX001 (ip), vehicle: carboxymethylcellulose (CMC)): 102 % of control
T/C (dose: 200.0 mg/kg/injection, schedule: Q01DX001 (ip), vehicle: carboxymethylcellulose (CMC)): 104 % of control
T/C (dose: 400.0 mg/kg/injection, schedule: Q01DX001 (ip), vehicle: carboxymethylcellulose (CMC)): 98 % of control

O=NN(Cc1cccnc1)Cc1cccnc1
T/C (dose: 75.0 mg/kg/injection, schedule: Q01DX001 (ip), vehicle: water): 102 % of control
T/C (dose: 150.0 mg/kg/injection, schedule: Q01DX001 (ip), vehicle: water): 102 % of control
